IC50 data for one molecule are collected here from patent publication US9474759B2 (priority 2011, dated 2016).

Holding throughout (assay): biochemical
Test [1] addresses NV 3CLpro (codon-optimized, full-length, N-terminal 6 His, recombinant) (Norovirus, UniProt Q83883). More on the design: species or system norovirus strain Norwalk.
Test [2] addresses MD145 3CLpro (codon-optimized, full-length, N-terminal 6 His, recombinant) (Lordsdale virus, UniProt P54634). Set-up: species or system norovirus strain MD145.
The target in test [3] is HRV 3Cpro (recombinant, purchased from EMD chemicals) (Human rhinovirus 14, UniProt P03303).
Test [4] concerns the target PV 3Cpro (codon-optimized, N-terminal 6 His, recombinant) (Poliovirus type 1, UniProt P03300). Set-up: species or system poliovirus (poliomyelitis virus).

NV 3CLpro (codon-optimized, full-length, N-terminal 6 His, recombinant), sequence (Q83883 1101-1281): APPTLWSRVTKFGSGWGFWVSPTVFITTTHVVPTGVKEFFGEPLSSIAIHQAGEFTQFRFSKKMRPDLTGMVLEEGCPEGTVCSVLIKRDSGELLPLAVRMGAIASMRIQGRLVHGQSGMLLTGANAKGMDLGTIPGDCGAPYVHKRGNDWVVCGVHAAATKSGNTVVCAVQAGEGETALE
HRV 3Cpro (recombinant, purchased from EMD chemicals), sequence (P03303 1538-1719): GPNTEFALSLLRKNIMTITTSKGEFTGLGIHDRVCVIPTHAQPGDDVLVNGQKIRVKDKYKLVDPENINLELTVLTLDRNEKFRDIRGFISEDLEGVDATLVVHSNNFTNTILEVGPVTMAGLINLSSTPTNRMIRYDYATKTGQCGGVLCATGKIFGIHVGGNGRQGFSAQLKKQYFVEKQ
PV 3Cpro (codon-optimized, N-terminal 6 His, recombinant), sequence (P03300 1566-1748 limits assumed): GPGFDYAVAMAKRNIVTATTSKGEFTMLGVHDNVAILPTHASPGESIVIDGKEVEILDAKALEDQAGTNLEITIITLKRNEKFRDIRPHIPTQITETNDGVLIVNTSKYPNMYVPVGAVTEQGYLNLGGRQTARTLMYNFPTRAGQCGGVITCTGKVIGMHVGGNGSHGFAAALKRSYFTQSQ
MD145 3CLpro (codon-optimized, full-length, N-terminal 6 His, recombinant), sequence (P54634 1009-1189): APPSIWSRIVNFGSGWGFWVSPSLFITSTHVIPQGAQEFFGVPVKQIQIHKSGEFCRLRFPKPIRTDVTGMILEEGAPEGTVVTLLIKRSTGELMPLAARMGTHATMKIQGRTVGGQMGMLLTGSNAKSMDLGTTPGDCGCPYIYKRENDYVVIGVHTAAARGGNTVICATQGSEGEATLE

What is called IC50 is the point on the concentration scale where inhibition reaches its midpoint. Regarding `CCOC(=O)/C=C/[C@H](C[C@@H]1CCNC1=O)NC(=O)[C@@H](CC(=O)[C@@H](NC(=O)c1cc(C)on1)C(C)C)Cc1ccc(F)cc1` [Rupintrivir, reference compound], the IC50 in test [1] is 830 ± 190 nM; in test [2], 700 ± 190 nM; in test [3] it was 340 ± 50 nM; in test [4] it was 1830 ± 380 nM.
